Reference: ChEMBL document CHEMBL5030557, “Tandem Repeat of a Short Human Chemerin-Derived Peptide and Its Nontoxic d-Lysine-Containing Enantiomer Display Broad-Spectrum Antimicrobial and Antitubercular Activities” (J Med Chem, 2021)
Values after ≈ are worked out from the molar mass of the structure shown. Active and inactive are the calls of the source. The calls are words filed in the database; no cut-off is given here.

How the values were obtained:
Escherichia coli [1] = assay: Antimicrobial activity against Escherichia coli ATCC 25922 assessed as inhibition of bacterial growth by broth dilution method; assay type: functional
Bacillus subtilis = assay: Antimicrobial activity against Bacillus subtilis ATCC 6633 assessed as inhibition of bacterial growth by broth dilution method; assay type: functional
Klebsiella pneumoniae = assay: Antimicrobial activity against Klebsiella pneumoniae ATCC 27736 assessed as inhibition of bacterial growth by broth dilution method; assay type: functional
Pseudomonas aeruginosa [2] = assay: Antimicrobial activity against Pseudomonas aeruginosa ATCC BAA-427 assessed as inhibition of bacterial growth by broth dilution method; assay type: functional
[3] = Stability of the compound in human serum assessed as intact compound remaining at 2 mg/ml measured after 60 mins by […] analysis; assay type: ADME, cell-free; conditions: read-out: Stability
[4] = Acute toxicity in BALB/c mouse assessed as survival at 30 mg/kg administered intravenously measured after 7 days; assay type: organism-based; conditions: in vivo, iv, 168 h, time 7 day
[5] = Acute toxicity in BALB/c mouse assessed as survival at 20 mg/kg administered intravenously measured after 7 days; assay type: organism-based; conditions: in vivo, iv, 168 h, time 7 day
[6] = Retention time of the compound analysed by RP-HPLC analysis; assay type: physicochemical
Staphylococcus aureus [7] = assay: Antimicrobial activity against Staphylococcus aureus ATCC 25923 assessed as inhibition of bacterial growth by broth dilution method; assay type: functional
Staphylococcus aureus [8] = assay: Antimicrobial activity against methicilin- resistant Staphylococcus aureus ATCC 33591 assessed as inhibition of bacterial growth by broth dilution method; assay type: functional
Staphylococcus aureus [9] = assay: Antimicrobial activity against multidrug-resistant Staphylococcus aureus ATCC BAA-44 assessed as inhibition of bacterial growth by broth dilution method; assay type: functional
[10] = Hemolytic activity in human RBC measured after 40 mins; assay type: ADME, tissue-based, Erythrocyte; conditions: red blood cells (RBC)
Escherichia coli [11] = assay: Antibacterial activity against Escherichia coli ATCC 25922 in presence of 10 percent fresh human serum measured after 1 hr; assay type: functional
Escherichia coli [12] = assay: Antibacterial activity against Escherichia coli ATCC 25922 in presence of 4.5 mM KCl measured after 1 hr; assay type: functional
Escherichia coli [13] = assay: Antibacterial activity against Escherichia coli ATCC 25922 in presence of 150 mM NaCl measured after 1 hr; assay type: functional
Escherichia coli [14] = assay: Antibacterial activity against Escherichia coli ATCC 25922 in presence of temperature ranging from 4 to 90 degC measured after 1 hr; assay type: functional
Cell membrane [15] = assay: Induction of membrane damage in Escherichia coli assessed as disruption of membrane integrity at 10 uM incubated for 30 min by propidium iodide staining based assay
[16] = (§1) Disruption of membrane integrity in human RBC cells assessed as membrane damage at 150 uM incubated for 15 min by Alexa fluor-annexin V staining based assay (reference value: 0%); assay type: functional, Red blood cell; conditions: 0.25 h
Red blood cell = assay: as §1; assay type: functional
Cell membrane [17] = assay: Disruption of plasma membrane in Staphylococcus aureus ATCC 25923 at 10 uM by SYTOX-green uptake assay; assay type: cell membranes; conditions: TDE = time-dependent effect
[18] = Permeability of the compound in PC/PG lipid vesicles by spectrofluorometry; assay type: ADME
Lipid bilayer = assay: Induction of membrane depolarization in mammalian mimetic PC/Chol vesicles assessed as membrane permeabilization
Pseudomonas aeruginosa [19] = assay: Antibacterial activity against Pseudomonas aeruginosa BAA 427 assessed as resistance development by measuring fold change in MIC after 30 passages with serially diluted peptides; assay type: functional
Escherichia coli [20] = assay: Bactericidal activity against Escherichia coli ATCC 25922 assessed as bacterial killing at 5 times MIC measured after 60 min; assay type: functional, organism-based
[21] = test system: Mycolicibacterium smegmatis; assay: Anti-mycobacterial activity against Mycobacterium smegmatis assessed as growth inhibition at 16.13 uM relative to control; assay type: functional
[22] = test system: Mycobacterium tuberculosis; assay: Anti-mycobacterial activity against Mycobacterium tuberculosis H37Ra assessed as growth inhibition at 16.13 uM relative to control; assay type: functional
[23] = test system: Mycolicibacterium smegmatis; assay: Anti-mycobacterial activity against Mycobacterium smegmatis infected in human THP-1 cells assessed as reduction in CFU at 24.19 uM after 24 hrs; assay type: functional
[24] = test system: Mycolicibacterium smegmatis; assay: Anti-mycobacterial activity against Mycobacterium smegmatis infected in human THP-1 cells assessed as reduction in CFU at 40.13 uM after 24 hrs; assay type: functional
Pseudomonas aeruginosa [25] = assay: Antibacterial activity against Pseudomonas aeruginosa infected in Balb/c mouse stomach assessed as animal survival at 100 mg/kg, ip after 7 days; assay type: functional; conditions: 168 h, time 7 day
THP-1 = assay: Cytotoxicity against human monocyte THP-1 cell line assessed as cell viability measured for 24 hrs using ELISA plate reader; assay type: cell-based; conditions: thp-1, 24 h
[26] = Hemolytic activity in human RBC at 150 uM measured after 40 min by hemolysis assay relative to control; assay type: ADME, tissue-based, Erythrocyte; conditions: red blood cells (RBC), read-out: Activity
Cell membrane [27] = assay: Inner membrane permeability of the compound in Escherichia coli ATCC 25922 by ONPG assay; assay type: ADME, subcellular
Pseudomonas aeruginosa [28] = assay: Antibacterial activity against Pseudomonas aeruginosa infected in Balb/c mouse stomach assessed as animal survival at 5 mg/kg, ip after 7 days; assay type: functional; conditions: 168 h, time 7 day
Pseudomonas aeruginosa [29] = assay: Antibacterial activity against Pseudomonas aeruginosa infected in Balb/c mouse stomach assessed as animal survival at 10 mg/kg, ip after 7 days; assay type: functional; conditions: 168 h, time 7 day
Pseudomonas aeruginosa [30] = assay: Anti-infective activity in Pseudomonas aeruginosa infected BALB/c mouse spleen assessed as reduction in bacterial growth at 10 mg/kg, ip after 12 hrs; assay type: functional, organism-based
Pseudomonas aeruginosa [31] = assay: Anti-infective activity in Pseudomonas aeruginosa infected BALB/c mouse spleen assessed as reduction in bacterial growth at 10 mg/kg, ip after 18 hrs; assay type: functional, organism-based
Pseudomonas aeruginosa [32] = assay: Anti-infective activity in Pseudomonas aeruginosa infected BALB/c mouse liver assessed as reduction in bacterial growth at 10 mg/kg, ip after 12 hrs; assay type: functional, organism-based
Pseudomonas aeruginosa [33] = assay: Anti-infective activity in Pseudomonas aeruginosa infected BALB/c mouse liver assessed as reduction in bacterial growth at 10 mg/kg, ip after 18 hrs; assay type: functional, organism-based
Pseudomonas aeruginosa [34] = assay: Anti-infective activity in Pseudomonas aeruginosa infected BALB/c mouse kidney assessed as reduction in bacterial growth at 10 mg/kg, ip after 12 hrs; assay type: functional, organism-based
Pseudomonas aeruginosa [35] = assay: Anti-infective activity in Pseudomonas aeruginosa infected BALB/c mouse kidney assessed as reduction in bacterial growth at 10 mg/kg, ip after 18 hrs; assay type: functional, organism-based
[36] = test system: Mycolicibacterium smegmatis; assay: Anti-mycobacterial activity against Mycobacterium smegmatis assessed as reduction in CFU at 3 times MIC after 12 hrs; assay type: functional, organism-based
[37] = test system: Mycolicibacterium smegmatis; assay: Anti-mycobacterial activity against Mycobacterium smegmatis assessed as reduction in CFU at 3 times MIC after 24 hrs; assay type: functional, organism-based
[38] = Acute toxicity in BALB/c mouse assessed as change in body weight at 20 mg/kg administered intravenously measured after 7 days; assay type: organism-based; conditions: in vivo, iv, 168 h, time 7 day

| Molecule | MIC (Escherichia coli [1]) | MIC (Bacillus subtilis) | MIC (Klebsiella pneumoniae) | MIC (Pseudomonas aeruginosa [2]) | remaining at 1 h, 2 mg/ml [3] | Activity [5] | Retention_time [6] | MIC (Staphylococcus aureus [7]) | MIC (Staphylococcus aureus [8]) | MIC (Staphylococcus aureus [9]) | HC50 at 40 min [10] | MIC (Escherichia coli [11]) | MIC (Escherichia coli [12]) | MIC (Escherichia coli [13]) | MIC (Escherichia coli [14]) | Activity (Cell membrane [15]) | Activity [16] | Activity (Cell membrane [17]) | Activity [18] | fold change (FC) (Pseudomonas aeruginosa [19]) | further results |
| --- | --- | --- | --- | --- | --- | --- | --- | --- | --- | --- | --- | --- | --- | --- | --- | --- | --- | --- | --- | --- | --- |
| CC(C)C[C@H](NC(=O)[C@H](CCCNC(=N)N)NC(=O)CNC(=O)[C@H](CC(C)C)NC(=O)[C@@H](NC(=O)[C@H](CCCCN)NC(=O)[C@@H](NC(=O)[C@H](CC(C)C)NC(=O)[C@H](CCCNC(=N)N)NC(=O)CNC(=O)[C@H](CC(C)C)NC(=O)[C@@H](NC(=O)[C@@H](N)CCCCN)C(C)C)C(C)C)C(C)C)C(=O)N[C@H](C(N)=O)C(C)C | 1 µM (≈ 1.55 µg/mL) | 2 µM (≈ 3.1 µg/mL) | 4 µM (≈ 6.2 µg/mL) | 4 µM (≈ 6.2 µg/mL) | 51% | Non-Toxic | 16 min | 2 µM (≈ 3.1 µg/mL) | 1 µM (≈ 1.55 µg/mL) | 2 µM (≈ 3.1 µg/mL) | 429 µM | 2 µM | 2 µM | 2 µM | 2 µM | Active | 96.5% | Tde | Active | 8 | Activity [4]: Non-Toxic; Activity (Red blood cell): Active; Activity (Lipid bilayer): inactive; Activity (Escherichia coli [20]): Active; inhibition at 16.13 µM [21]: 80%; inhibition at 16.13 µM [22]: 80%; inhibition at 24.19 µM [23]: 20%; inhibition at 40.13 µM [24]: 40% |
| C[C@H]1COc2c(N3CCN(C)CC3)c(F)cc3c(=O)c(C(=O)O)cn1c23 [LEVOFLOXACIN] | – | – | – | – | – | – | – | – | – | – | – | – | – | – | – | – | – | – | – | – | survival at 100 mg/kg (Pseudomonas aeruginosa [25]): 100% |
| GENTAMICIN | – | – | – | 1.35 µM | – | – | – | 0.67 µM | – | 1.35 µM | – | – | – | – | – | – | – | – | – | 16 | – |
| CC(C)C[C@H](NC(=O)[C@H](CCCNC(=N)N)NC(=O)CNC(=O)[C@H](CC(C)C)NC(=O)[C@@H](NC(=O)[C@@H](CCCCN)NC(=O)[C@@H](NC(=O)[C@H](CC(C)C)NC(=O)[C@H](CCCNC(=N)N)NC(=O)CNC(=O)[C@H](CC(C)C)NC(=O)[C@@H](NC(=O)[C@@H](N)CCCCN)C(C)C)C(C)C)C(C)C)C(=O)N[C@H](C(N)=O)C(C)C | 1 µM (≈ 1.55 µg/mL) | 2 µM (≈ 3.1 µg/mL) | 4 µM (≈ 6.2 µg/mL) | 4 µM (≈ 6.2 µg/mL) | 88% | Toxic | 14.6 min | 1 µM (≈ 1.55 µg/mL) | 2 µM (≈ 3.1 µg/mL) | 2 µM (≈ 3.1 µg/mL) | > 2000 µM | 2 µM | 8 µM | 4 µM | 2 µM | Active | 2.1% | Tde | Active | 2 | Activity (THP-1): Non-Toxic; hemolysis at 40 min, 150 µM [26]: 0%; Activity (Cell membrane [27]): Active; Activity (Lipid bilayer): inactive; Activity (Escherichia coli [20]): Active; survival at 5 mg/kg (Pseudomonas aeruginosa [28]): 40%; survival at 10 mg/kg (Pseudomonas aeruginosa [29]): 80%; Activity (Pseudomonas aeruginosa [30]): Active; Activity (Pseudomonas aeruginosa [31]): Active; Activity (Pseudomonas aeruginosa [32]): Active; Activity (Pseudomonas aeruginosa [33]): Active; Activity (Pseudomonas aeruginosa [34]): Active; Activity (Pseudomonas aeruginosa [35]): Active; inhibition at 16.13 µM [21]: 95%; inhibition at 16.13 µM [22]: 95%; Activity [36]: Active; Activity [37]: Active; inhibition at 24.19 µM [23]: 40%; inhibition at 40.13 µM [24]: 80%; Activity [38]: Non-Toxic |
| CCn1cc(C(=O)O)c(=O)c2cc(F)c(N3CCNCC3)cc21 [NORFLOXACIN] | – | – | 0.15 µM (≈ 0.0479 µg/mL) | 1.22 µM (≈ 0.39 µg/mL) | – | – | – | 1.22 µM (≈ 0.39 µg/mL) | – | 2.44 µM (≈ 0.779 µg/mL) | – | – | – | – | – | – | – | – | – | – | – |
| CC[C@H](C)[C@H](NC(=O)CN)C(=O)NCC(=O)N[C@@H](C)C(=O)N[C@H](C(=O)N[C@@H](CC(C)C)C(=O)N[C@@H](CCCCN)C(=O)N[C@H](C(=O)N[C@@H](CC(C)C)C(=O)N[C@H](C(=O)N[C@H](C(=O)NCC(=O)N[C@@H](CC(C)C)C(=O)N1CCC[C@H]1C(=O)N[C@@H](C)C(=O)N[C@@H](CC(C)C)C(=O)N[C@H](C(=O)N[C@@H](CO)C(=O)N[C@@H](Cc1c[nH]c2ccccc12)C(=O)N[C@H](C(=O)N[C@@H](CCCCN)C(=O)N[C@@H](CCCNC(=N)N)C(=O)N[C@@H](CCCCN)C(=O)N[C@@H](CCCNC(=N)N)C(=O)N[C@@H](CCC(N)=O)C(=O)N[C@@H](CCC(N)=O)C(N)=O)[C@@H](C)CC)[C@@H](C)CC)[C@@H](C)O)[C@@H](C)O)C(C)C)C(C)C [MELITTIN] | – | – | – | – | – | – | – | – | – | – | – | – | – | – | – | – | 99.6% | – | – | – | – |
